{
  "source": "patent US12268666B2",
  "about": "“Spray-dried dispersions, formulations, and polymorphs of (S)-5-amino-3-(4-((5-fluoro-2-methoxybenzamido)methyl)phenyl)-1-(1,1,1-trifluoropropan-2-yl)-1H-pyrazole-4-carboxamide” (Loxo Oncology, Inc., priority 2018, dated 2025)",
  "key": {"[1]": {"test_system": "OCI-Ly10 human B-cell lymphoma cell line xenograft", "experiment": "Tumor growth inhibition in OCI-Ly10 xenografts", "assay_type": "in vivo, male NOD SCID mice", "conditions": "for tumor growth during the dosing period: oral, 28 days", "experimental": "A total of 65 male NOD-SCIO mice are used for the study. At the start of the study the animals are aged 6-8 weeks and weighed approximately 21-27 g. Animals are housed in IVC cages (up to 5 per cage) with individual mice identified by tail marking. All animals are allowed free access to a standard certified commercial diet and sanitized water during the study. The holding room is maintained under standard conditions: 20-24° C., 40-70% humidity and a 12 hr light/dark cycle. Animals are randomly assigned to treatment groups. OCI-Lyl0 cells are implanted subcutaneously into the flanks of male NOD SCID mice and allowed to grow to a volume of approximately 150-200 mm^3. […] The formulation used is 0.5% hydroxypropyl methylcellulose. The dosing volume is 10 mL/kg. An individual animal's dose is calculated from the bodyweight recorded on the day of dosing. Animals are dosed for 28 days. Bodyweight and health observation of animals is recorded daily for the duration of dosing.\nTumor volume is measured three times per week during the study."}, "[2]": {"target": "T1, full-length wild type (WT) human BTK (Homo sapiens, UniProt Q06187)", "T1 construct": "against full-length wild type (WT) and mutant human BTK enzymes", "experiment": "BTK activity assay, [33P]-ATP incorporation into poly-EY", "assay_type": "biochemical", "experimental": "(§1) The activity of the compound of Formula I against full-length wild type (WT) and mutant human BTK enzymes is determined by monitoring the incorporation [^33P]-PO4 from [γ-^33P]-ATP into poly-glutamic acid-tyrosine (poly-EY) peptide substrate. The reaction mixtures each contained polyhistidine-tagged BTK enzyme, poly-EY and BTK inhibitor at the appropriate concentrations. The reaction mixtures are incubated for 20 minutes at room temperature after which [[γ-^33P]-ATP (radiochemical concentration 10 μCi/μL) at 10 μM or the ATP Km concentration for each enzyme is added. After 2 hours of incubation at room temperature, the radiolabeled peptide substrate is captured, and incorporated radioactivity is quantified.\n(§2) Each assay is performed at an ATP concentration close to the Km for each enzyme. […] After co-incubation with a serial dilution of the compound of Formula I, the quantity of ^33P incorporated into a peptide substrate is measured and the data analyzed using standard curve fitting methods."}, "[3]": {"target": "T2, TXK (Homo sapiens, UniProt P42681)", "T2 construct": "purchased Reaction Biology", "experiment": "Kinase selectivity, radiolabeled ATP activity assay", "assay_type": "biochemical", "experimental": "(§3) Each assay is performed at an ATP concentration close to the Km for each enzyme. […] BRK, CSK, ERBB4, FYN, MEK1, MEK2, TXK, and YES1 The inhibitory activity of the compound of Formula I on the enzymatic activity of these kinases and TEC is determined using a radiolabeled ATP activity assay conducted with an ATP concentration near the ATP Km for each enzyme. After co-incubation with a serial dilution of the compound of Formula I, the quantity of ^33P incorporated into a peptide substrate is measured and the data analyzed using standard curve fitting methods."}, "[4]": {"target": "T3, MEK2 (Homo sapiens, UniProt P36507)", "T3 construct": "purchased Reaction Biology", "experiment": "Kinase selectivity, radiolabeled ATP activity assay", "assay_type": "biochemical", "experimental": "as §3"}, "[5]": {"target": "T4, ERBB4 (Homo sapiens, UniProt Q15303)", "T4 construct": "purchased Reaction Biology", "T4 sequence (Q15303 26-1308)": "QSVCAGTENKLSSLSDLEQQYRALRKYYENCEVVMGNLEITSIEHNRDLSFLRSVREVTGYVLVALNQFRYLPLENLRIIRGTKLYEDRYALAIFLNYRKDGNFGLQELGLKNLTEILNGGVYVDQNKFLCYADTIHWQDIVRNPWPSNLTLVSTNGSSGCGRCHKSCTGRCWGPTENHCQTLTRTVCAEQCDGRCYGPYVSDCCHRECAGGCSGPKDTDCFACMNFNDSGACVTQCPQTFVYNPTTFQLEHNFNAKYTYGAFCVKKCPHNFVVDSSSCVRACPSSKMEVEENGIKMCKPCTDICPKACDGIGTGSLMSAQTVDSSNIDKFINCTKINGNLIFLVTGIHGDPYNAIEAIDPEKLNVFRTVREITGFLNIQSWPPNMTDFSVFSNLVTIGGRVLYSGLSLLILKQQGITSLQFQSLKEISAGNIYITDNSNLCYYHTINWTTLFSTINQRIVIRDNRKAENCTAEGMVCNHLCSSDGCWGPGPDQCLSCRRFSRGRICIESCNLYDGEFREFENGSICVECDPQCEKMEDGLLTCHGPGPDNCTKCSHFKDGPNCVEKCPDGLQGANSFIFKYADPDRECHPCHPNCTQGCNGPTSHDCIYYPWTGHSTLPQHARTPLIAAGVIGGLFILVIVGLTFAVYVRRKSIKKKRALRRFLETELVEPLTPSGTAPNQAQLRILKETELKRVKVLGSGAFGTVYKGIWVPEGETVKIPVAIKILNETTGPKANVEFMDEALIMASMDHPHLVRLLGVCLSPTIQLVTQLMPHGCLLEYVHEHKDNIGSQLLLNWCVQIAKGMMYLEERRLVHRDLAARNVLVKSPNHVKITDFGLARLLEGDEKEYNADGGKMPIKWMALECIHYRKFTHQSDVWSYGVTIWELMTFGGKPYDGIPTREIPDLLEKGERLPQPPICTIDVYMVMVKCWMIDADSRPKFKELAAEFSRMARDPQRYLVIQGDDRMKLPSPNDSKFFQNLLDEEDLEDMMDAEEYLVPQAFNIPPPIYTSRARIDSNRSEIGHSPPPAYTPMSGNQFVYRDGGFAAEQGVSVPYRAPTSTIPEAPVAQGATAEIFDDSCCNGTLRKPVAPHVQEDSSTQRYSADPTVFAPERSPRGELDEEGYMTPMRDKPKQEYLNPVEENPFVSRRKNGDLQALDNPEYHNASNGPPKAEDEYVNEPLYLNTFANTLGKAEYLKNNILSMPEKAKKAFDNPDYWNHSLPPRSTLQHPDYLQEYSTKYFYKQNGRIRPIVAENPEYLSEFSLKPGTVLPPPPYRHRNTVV", "experiment": "Kinase selectivity, radiolabeled ATP activity assay", "assay_type": "biochemical", "experimental": "as §3"}, "[6]": {"target": "T5, MEK1 (Homo sapiens, UniProt Q02750)", "T5 construct": "purchased Reaction Biology", "experiment": "Kinase selectivity, radiolabeled ATP activity assay", "assay_type": "biochemical", "experimental": "as §3"}, "[7]": {"target": "T6, BTK C481S (Homo sapiens, UniProt Q06187, C481S)", "T6 sequence (Q06187 whole entry C481S)": "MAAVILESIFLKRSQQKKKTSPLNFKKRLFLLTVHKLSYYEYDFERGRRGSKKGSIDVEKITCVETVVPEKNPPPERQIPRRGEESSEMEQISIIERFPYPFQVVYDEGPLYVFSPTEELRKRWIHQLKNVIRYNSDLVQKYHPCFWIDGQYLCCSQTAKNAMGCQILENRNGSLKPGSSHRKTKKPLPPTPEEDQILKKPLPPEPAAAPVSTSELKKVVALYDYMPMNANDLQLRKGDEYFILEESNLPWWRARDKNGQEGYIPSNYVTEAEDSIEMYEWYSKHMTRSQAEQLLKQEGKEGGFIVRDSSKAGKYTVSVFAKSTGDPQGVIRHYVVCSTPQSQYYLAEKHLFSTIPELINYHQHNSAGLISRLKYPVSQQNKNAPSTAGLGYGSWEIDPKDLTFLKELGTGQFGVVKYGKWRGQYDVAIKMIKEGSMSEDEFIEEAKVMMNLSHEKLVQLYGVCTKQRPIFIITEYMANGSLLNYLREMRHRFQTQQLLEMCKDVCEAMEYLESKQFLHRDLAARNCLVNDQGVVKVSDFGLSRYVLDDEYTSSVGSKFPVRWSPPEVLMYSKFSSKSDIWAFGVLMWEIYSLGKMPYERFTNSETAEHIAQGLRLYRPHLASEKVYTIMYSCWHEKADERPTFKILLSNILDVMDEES", "experiment": "BTK activity assay, [33P]-ATP incorporation into poly-EY", "assay_type": "biochemical", "design": "against full-length wild type (WT) and mutant human BTK enzymes", "experimental": "as §1, §2"}, "[8]": {"target": "T6, BTK C481S", "experiment": "Y223 autophosphorylation in HEK293 cells stably expressing BTK C481S", "assay_type": "cell-based", "design": "expressed in transfected cells; host or cells: HEK293", "conditions": "C481S mutant, 2 hr treatment, signal normalized to total BTK", "experimental": "HEK293 cell lines stably expressing BTK wild type and the mutant form C481S are generated using standard transfection methods. For assessment of cellular inhibition potency, cells are grown in DMEM +10% Fetal Bovine Serum (FBS)+1 μg/ml puromycin (complete growth media) at 37° C. in a CO2 incubator. Cells are harvested according to standard protocols using TRYPLE™ (Gibco #12604-013), counted, resuspended in complete growth media, and added to 6 well assay plates at 4×10 ^5 cell/well in 2 mL. Plates are incubated overnight at 37° C. with 5% CO2. […] All samples are tested in triplicate. Following compound incubation, the growth medium is discarded, cells are washed with DPBS (1×) (Gibco #14190-144) and lysed in 1 mL of […]™ M (Sigma #C2978) containing 1× Halt phosphatase and protease inhibitor cocktails (Pierce #78442). Plates are placed on ice for 1 hr with gentle agitation and stored at −80° C. overnight. The next day, cell lysates are placed in 1.5 mL tubes and cleared by centrifugation at 16,000×g for 10 min at 4° C. Supernatants are quantified by BCA (Pierce #23225) and stored at −80° C. Samples are analyzed by Simple Western (Protein Simple) with anti-phospho-BTK (Y223) (Cell Signaling Technologies (CST) #5082) and anti-BTK (CST #8547) (FIGS. 10A and 10B). β-actin is used as a loading control and detected by regular Western blot with an anti-3-actin antibody (CST #4970)."}, "[9]": {"conditions": "ATP at Km concentration, read-out: IC50 value"}, "[10]": {"conditions": "1.0 μM compound, ATP close to Km, read-out: Percent of Control (POC)"}},
  "note": "Like-named read-outs stand apart in the source and are kept apart here.",
  "data": [
    {"compound": "COc1ccc(F)cc1C(=O)NCc1ccc(-c2nn([C@@H](C)C(F)(F)F)c(N)c2C(N)=O)cc1", "note": "[compound of Formula I, (S)-5-amino-3-(4-((5-fluoro-2-methoxybenzamido)methyl)phenyl)-1-(1,1,1-trifluoropropan-2-yl)-1H-pyrazole-4-carboxamide]", "values": [
      {"measurement": "tumor growth during the dosing period", "setting": "[1]; 10 mg/kg BID", "result": "inhibition of tumor growth"},
      {"measurement": "tumor size compared with ibrutinib-treated animals", "setting": "[1]; 10 mg/kg BID, p=0.0008, ANOVA with Tukey post-hoc test", "result": "significantly smaller than those from animals treated with ibrutinib"},
      {"measurement": "tumor growth during the dosing period", "setting": "[1]; 50 mg/kg BID", "result": "inhibition of tumor growth"},
      {"measurement": "tumor size compared with ibrutinib-treated animals", "setting": "[1]; 50 mg/kg BID, p<0.0001, ANOVA with Tukey post-hoc test", "result": "significantly smaller than those from animals treated with ibrutinib"},
      {"measurement": "tumor growth after dosing had stopped", "setting": "[1]; after the 28-day dosing period", "result": "maintained even after dosing had stopped"},
      {"measurement": "IC50", "setting": "[2]; 10 μM ATP, read-out: IC50", "result": 0.95, "unit": "nM"},
      {"measurement": "IC50", "setting": "[2]; [9]", "result": 3.15, "unit": "nM"},
      {"measurement": "remaining activity at 1 µM", "setting": "[3]; [10]", "result": "< 50", "unit": "%"},
      {"measurement": "IC50", "setting": "[3]; ATP near Km", "result": 209, "unit": "nM"},
      {"measurement": "remaining activity at 1 µM", "setting": "[4]; [10]", "result": "< 50", "unit": "%"},
      {"measurement": "IC50", "setting": "[4]; ATP near Km", "result": 82.7, "unit": "nM"},
      {"measurement": "remaining activity at 1 µM", "setting": "[5]; [10]", "result": "< 50", "unit": "%"},
      {"measurement": "IC50", "setting": "[5]; ATP near Km", "result": 13.2, "unit": "nM"},
      {"measurement": "remaining activity at 1 µM", "setting": "[6]; [10]", "result": "< 50", "unit": "%"},
      {"measurement": "IC50", "setting": "[6]; ATP near Km", "result": 147, "unit": "nM"},
      {"measurement": "IC50", "setting": "[7]; 10 μM ATP, read-out: IC50", "result": 0.29, "unit": "nM"},
      {"measurement": "IC50", "setting": "[7]; [9]", "result": 1.42, "unit": "nM"},
      {"measurement": "IC50", "setting": "[8]", "result": "8.8 ± 1.8", "unit": "nM"}
    ]}
  ]
}
